# Experimental data reported in patent US5460697A, “Method of pulping wood chips with a fungi using sulfite salt-treated wood chips” (priority 1994, dated 1995).
# “Also recorded” adds a separate entry of the source.
# Assays:
# [1] = system: H. setulosa FP-106976-sp; test: Effect of sodium bisulfite on radial growth of white-rot fungi; type: cell-based; settings: 500 μg/ml
# Procedure: (§1) 2% agar was added to the medium. The medium was autoclaved for 15 min. and the medium was poured into petri dishes. These plates were then inoculated with a plug cut into 8-mm diameter plugs from a petri dish containing a 5-day-old culture of P. chrysosporium or a petri dish containing a 10-day-old culture of another white-rot fungi. P. chrysosporium-inoculated plates were incubated at 39° C. Plates inoculated with other fungi were incubated at 27° C.
# [2] = system: P. subserialis RLG-6074-sp; test: as above; type: cell-based; settings: 500 μg/ml
# Procedure: as §1
# [3] = system: P. tremellosa PRL-2845; test: as above; type: cell-based; settings: 500 μg/ml
# Procedure: as §1
# [4] = system: P. brevispora 7030-sp; test: as above; type: cell-based; settings: 500 μg/ml
# Procedure: as §1
# [5] = system: indigenous microorganisms; test: Effect of sulfite salts on indigenous microorganisms of unsterilized wood chips (plating); type: cell-based, indigenous microorganisms of unsterilized aspen wood chips
# Procedure: Aspen wood chips (50 g O.D. basis) were soaked in 500 ml of water containing either 0 mg, 781 mg or 1562 mg sodium bisulfite for about 1 hour at room temperature. After soaking, water was drained from the chips.
# During the 1 hour soaking the chips soaked up about 31 ml of water. Therefore, the final moisture content of wood was about 61% (wet weight basis) and the final concentration of each chemical on water basis was about 0 μg/ml, 600 μg/ml and 1200 μg/ml.
# Three chips were pulled randomly from each flask and plated on potato dextrose agar and tryptic soy agar plates. These plates were incubated at 27° C. for 24 or 27 h and the contaminants were visually observed.
# A panel of other sulfur-containing chemicals were analyzed for their ability to inhibit the growth of indigenous microorganisms on unsterilized wood chips in the manner described above. Table 2 describes the various concentrations of these chemicals and the percent inhibition relative to control plates observed.
# [6] = Effluent toxicity (Microtox); settings: for Toxicity Units (100/EC50): 1300 μg/ml BiS
# Source text: Evaluating biopulp effluents is an important factor in assessing the feasibility of this new pulping process. […] Because the composition of biopulp effluent is unknown, we selected a general toxicity test method, Microtox, as an appropriate method for the evaluation. Microtox analysis has been used satisfactorily as a rapid screening method for evaluating toxicity of pulp mill effluents Firth, B. and Backman, C. Tappi J., 75[12]169; 1991.
# For each run, approximately 1.5-1.6 kg wood chips (oven dry weight basis) of each treatment from 4-week incubation samples, were fiberized in an atmospheric refiner and the pulp slurry was collected in 20-gallon plastic containers. The flow rate during refining operation was approximately 50 kg 90° C. water per kg chips (oven dry weight basis). A representative 5-gallon sample was taken from each slurry and filtered on a Buchner funnel to separate pulp from effluent (filtrate). Filtrates were cooled to 4° C. and pH was recorded. Chilled effluent samples were submitted for Microtox testing at National Council for Air and Stream Improvement according to standard Microtox procedures.
smiles,measurement,setting,value
O=S([O-])O.[Na+] [Sodium Bisulfite],Radial growth 72h ± SD,[1]; 72 h,1.97 ± .06 cm
same,Radial growth 96h ± SD,[1]; 96 h,3.77 ± .25 cm
same,Radial growth 72h ± SD,[2]; 72 h,3.93 ± .42 cm
same,Radial growth 96h ± SD,[2]; 96 h,7.07 ± .29 cm
same,Radial growth 72h ± SD,[3]; 72 h,1.73 ± .06 cm
same,Radial growth 96h ± SD,[3]; 96 h,2.97 ± .12 cm
same,Radial growth 72h ± SD,[4]; 72 h,2.23 ± .06 cm
same,Radial growth 96h ± SD,[4]; 96 h,4.07 ± .38 cm
same,Inhibition Relative to control,[5]; 600 μg/ml,95%
same,Inhibition Relative to control,[5]; 1200 μg/ml,100%
same,inhibition of contaminants (in words),"[5]; 1200 μg/ml, potato dextrose and tryptic soy agar plates",completely inhibited all contaminants; also recorded: no colonies on the plate
same,first test: whether the salt inhibits growth of indigenous microorganisms,[5]; pass / not pass,passed the first test
same,inhibition of growth of indigenous microorganisms (in words),"[5]; unsterilized wood chips, overall statement",successfully inhibited the growth of microorganisms; also recorded: inhibited all wood contaminants; also recorded: inhibited the growth of indigenous microorganisms
same,Toxicity Units (100/EC50),"[6]; Control 2: not A/C, no fungus",15.4 Toxicity Units
same,Toxicity Units (100/EC50),"[6]; Control 4: A/C, no fungus",16.1 Toxicity Units
same,Toxicity Units (100/EC50),"[6]; Treatment 2: not A/C, with fungus, 4-week incubation",4.2 Toxicity Units
same,Toxicity Units (100/EC50),"[6]; Treatment 4: A/C, with fungus, 4-week incubation",6.2 Toxicity Units
same,toxicity (in words),"[6]; at least 2-2.5 kg/ton of wood chips, unsterilized, vs control chips",less toxicity than from control chips
same,effluent toxicity (in words),"[6]; biopulp, treatment 2",least toxic effluent from biopulp
same,effluent toxicity (in words),"[6]; controls without fungus (control 2, control 4)",high effluent toxicity; also recorded: increased effluent toxicity of the non-autoclaved control chips
